Patent US20250333407A1, “Compounds and Their Use for Treatment of Hemoglobinopathies” (Bristol-Myers Squibb Company, priority 2024, published 2025)

Legend:
Type in all cases: cell-based
ZBTB7A = target: T1, ZBTB7A (Homo sapiens, UniProt O95365+Q96SW2); assay: HUDEP-2 ZBTB7A HiBiT degradation assay; settings: HiBiT-tagged ZBTB7A degradation in HUDEP-2 cells, 24 hours of treatment; read-out: ZBTB7A EC50
T1 construct: HUDEP-2 cells engineered to express a HiBiT tag in either the WIZ (Widely interspaced zinc finger) or ZBTB7A
Summary of the method: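 HiBiT-tagged HUDEP-2 cells were pre-cultured 48 h in IMDM with EPO, SCF, doxycycline and 5% human plasma, then exposed to compounds at 1.0×10^6 cells/ml for 24 h at 37 °C. Nano-Glo HiBiT lytic luminescence, normalised to DMSO over 10 concentrations, gave EC50 and Y-min.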

WIZ = target: T2, WIZ (Homo sapiens, UniProt O95785+Q96SW2); assay: HUDEP-2 WIZ HiBiT degradation assay; settings: HiBiT-tagged WIZ degradation in HUDEP-2 cells, 24 hours of treatment; read-out: WIZ EC50
T2 construct: HUDEP-2 cells engineered to express a HiBiT tag in either the WIZ (Widely interspaced zinc finger) or ZBTB7A
Summary of the method: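 HiBiT-tagged HUDEP-2 cells at 1.0×10^6 cells/ml in SFEM II with SCF, EPO, dexamethasone and doxycycline, treated 24 h at 37 °C with a 10-point series ([…]). Luminescence after HiBiT lytic detection, normalized to DMSO; EC50 and Y-min from fitted curves.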

HbF = HbF HiBiT induction assay in HUDEP-2 cells; settings: HUDEP-2 cells with HiBiT tag in HBG1/2, 72 hours of treatment; area under the dose response curve, higher AUC = greater HbF induction
Summary of the method: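 HUDEP-2 cells carrying a HiBiT tag on HBG1/2 were exposed to compounds for 72 h at 37° C, 5% CO2, in IMDM with EPO, hSCF, DOX, transferrin, insulin, heparin and 5% human plasma. HiBiT luminescence was read after lytic detection; HbF induction is expressed as dose-response AUC, alongside EC50 and Ymax.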

T2 sequence (O95785 whole entry): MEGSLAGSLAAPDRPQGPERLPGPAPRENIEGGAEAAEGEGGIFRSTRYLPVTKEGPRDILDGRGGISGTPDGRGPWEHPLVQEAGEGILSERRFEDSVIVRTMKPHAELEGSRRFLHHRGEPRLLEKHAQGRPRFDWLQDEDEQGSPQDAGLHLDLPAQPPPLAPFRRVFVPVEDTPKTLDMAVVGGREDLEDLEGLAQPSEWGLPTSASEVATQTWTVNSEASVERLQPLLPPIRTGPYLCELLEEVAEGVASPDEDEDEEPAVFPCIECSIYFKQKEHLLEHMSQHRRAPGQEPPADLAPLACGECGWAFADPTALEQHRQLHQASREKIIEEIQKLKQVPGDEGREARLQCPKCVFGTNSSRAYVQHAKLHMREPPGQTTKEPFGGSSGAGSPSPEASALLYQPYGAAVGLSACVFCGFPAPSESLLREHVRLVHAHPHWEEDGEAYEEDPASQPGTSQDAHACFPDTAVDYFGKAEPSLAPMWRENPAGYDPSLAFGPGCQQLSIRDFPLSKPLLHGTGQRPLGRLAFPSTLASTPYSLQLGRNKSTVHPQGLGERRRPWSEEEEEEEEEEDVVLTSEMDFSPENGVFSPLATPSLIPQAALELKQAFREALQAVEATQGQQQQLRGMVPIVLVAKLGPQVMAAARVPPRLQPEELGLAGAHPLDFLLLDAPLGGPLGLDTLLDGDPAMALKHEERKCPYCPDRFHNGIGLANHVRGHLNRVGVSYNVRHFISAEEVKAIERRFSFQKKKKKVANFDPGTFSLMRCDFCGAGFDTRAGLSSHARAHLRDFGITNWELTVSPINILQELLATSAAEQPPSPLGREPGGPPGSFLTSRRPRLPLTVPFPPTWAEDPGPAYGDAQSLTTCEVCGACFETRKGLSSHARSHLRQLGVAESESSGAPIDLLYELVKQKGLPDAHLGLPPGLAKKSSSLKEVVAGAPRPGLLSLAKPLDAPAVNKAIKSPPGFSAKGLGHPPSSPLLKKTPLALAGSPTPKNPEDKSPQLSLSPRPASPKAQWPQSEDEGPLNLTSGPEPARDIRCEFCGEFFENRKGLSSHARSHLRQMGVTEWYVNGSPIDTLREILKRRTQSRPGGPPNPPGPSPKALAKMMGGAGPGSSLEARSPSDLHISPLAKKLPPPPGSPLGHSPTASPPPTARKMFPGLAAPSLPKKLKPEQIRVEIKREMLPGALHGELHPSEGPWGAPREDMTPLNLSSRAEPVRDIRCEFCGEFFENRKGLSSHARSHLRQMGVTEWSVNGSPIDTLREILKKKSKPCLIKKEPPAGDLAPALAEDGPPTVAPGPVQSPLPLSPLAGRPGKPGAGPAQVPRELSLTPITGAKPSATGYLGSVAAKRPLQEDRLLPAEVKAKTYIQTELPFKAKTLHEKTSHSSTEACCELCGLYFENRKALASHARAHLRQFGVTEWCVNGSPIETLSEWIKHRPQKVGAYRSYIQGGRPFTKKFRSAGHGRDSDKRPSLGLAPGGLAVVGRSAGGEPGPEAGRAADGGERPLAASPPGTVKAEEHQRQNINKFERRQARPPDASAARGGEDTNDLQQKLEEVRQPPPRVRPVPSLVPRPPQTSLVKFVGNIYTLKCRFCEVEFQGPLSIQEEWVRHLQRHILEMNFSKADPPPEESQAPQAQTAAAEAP
T2 sequence (Q96SW2 whole entry): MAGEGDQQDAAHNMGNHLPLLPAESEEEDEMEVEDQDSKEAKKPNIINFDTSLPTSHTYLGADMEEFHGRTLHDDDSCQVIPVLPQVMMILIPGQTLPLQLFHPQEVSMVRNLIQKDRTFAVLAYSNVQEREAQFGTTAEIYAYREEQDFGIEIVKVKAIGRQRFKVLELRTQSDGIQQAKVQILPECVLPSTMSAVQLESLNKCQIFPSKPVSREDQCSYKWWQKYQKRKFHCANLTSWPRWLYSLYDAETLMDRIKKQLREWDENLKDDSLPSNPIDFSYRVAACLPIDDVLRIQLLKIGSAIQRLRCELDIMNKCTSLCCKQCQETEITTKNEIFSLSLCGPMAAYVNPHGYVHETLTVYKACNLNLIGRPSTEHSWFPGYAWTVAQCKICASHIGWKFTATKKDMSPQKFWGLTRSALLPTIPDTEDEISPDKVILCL
T2 sequence (Q16531 whole entry partner): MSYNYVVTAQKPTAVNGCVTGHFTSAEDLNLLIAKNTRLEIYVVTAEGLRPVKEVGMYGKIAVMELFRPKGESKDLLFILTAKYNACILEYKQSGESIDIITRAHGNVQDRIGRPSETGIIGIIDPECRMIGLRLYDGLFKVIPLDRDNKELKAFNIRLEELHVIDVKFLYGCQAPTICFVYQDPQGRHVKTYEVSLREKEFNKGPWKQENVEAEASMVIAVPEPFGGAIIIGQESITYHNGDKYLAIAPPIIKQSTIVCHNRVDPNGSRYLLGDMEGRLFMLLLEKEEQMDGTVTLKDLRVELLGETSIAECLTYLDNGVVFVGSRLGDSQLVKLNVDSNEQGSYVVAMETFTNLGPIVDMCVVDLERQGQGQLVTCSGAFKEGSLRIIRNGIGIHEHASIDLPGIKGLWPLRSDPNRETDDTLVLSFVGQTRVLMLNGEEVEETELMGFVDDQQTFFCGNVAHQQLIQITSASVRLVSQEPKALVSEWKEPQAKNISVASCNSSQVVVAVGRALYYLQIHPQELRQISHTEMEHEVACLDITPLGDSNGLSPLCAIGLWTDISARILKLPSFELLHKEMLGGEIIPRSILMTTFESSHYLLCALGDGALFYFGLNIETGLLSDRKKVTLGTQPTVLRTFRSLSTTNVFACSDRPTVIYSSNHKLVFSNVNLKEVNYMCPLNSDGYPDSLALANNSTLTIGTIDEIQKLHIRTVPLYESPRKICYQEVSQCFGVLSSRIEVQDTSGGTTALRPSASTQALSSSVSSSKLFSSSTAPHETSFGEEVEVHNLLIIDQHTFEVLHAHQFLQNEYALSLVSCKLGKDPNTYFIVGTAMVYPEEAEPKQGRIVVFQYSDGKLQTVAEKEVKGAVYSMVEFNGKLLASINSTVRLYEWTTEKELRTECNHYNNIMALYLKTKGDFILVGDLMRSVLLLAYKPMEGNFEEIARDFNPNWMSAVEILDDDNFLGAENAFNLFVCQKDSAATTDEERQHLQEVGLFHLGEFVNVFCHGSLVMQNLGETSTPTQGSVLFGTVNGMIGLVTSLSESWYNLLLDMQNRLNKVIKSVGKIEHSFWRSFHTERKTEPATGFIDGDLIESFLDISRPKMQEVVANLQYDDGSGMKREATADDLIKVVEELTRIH
T1 sequence (O95365 whole entry): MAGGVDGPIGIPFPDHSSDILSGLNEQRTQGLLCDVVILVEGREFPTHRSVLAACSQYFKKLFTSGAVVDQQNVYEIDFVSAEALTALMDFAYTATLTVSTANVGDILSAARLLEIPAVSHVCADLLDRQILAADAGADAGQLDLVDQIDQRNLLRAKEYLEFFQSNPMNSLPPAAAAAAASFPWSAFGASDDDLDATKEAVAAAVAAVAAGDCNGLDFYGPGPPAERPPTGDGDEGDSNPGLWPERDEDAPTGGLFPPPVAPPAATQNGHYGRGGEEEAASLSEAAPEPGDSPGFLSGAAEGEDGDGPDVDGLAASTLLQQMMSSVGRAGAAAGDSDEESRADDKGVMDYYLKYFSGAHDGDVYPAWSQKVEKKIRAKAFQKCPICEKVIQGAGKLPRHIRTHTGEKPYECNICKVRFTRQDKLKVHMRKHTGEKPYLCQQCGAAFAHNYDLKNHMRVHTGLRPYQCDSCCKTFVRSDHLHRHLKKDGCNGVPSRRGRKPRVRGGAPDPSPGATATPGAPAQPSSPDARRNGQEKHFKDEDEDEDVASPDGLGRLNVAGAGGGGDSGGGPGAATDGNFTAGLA
T1 sequence (Q96SW2 whole entry): as the sequence (Q96SW2 whole entry) above
T1 sequence (Q16531 whole entry partner): as the sequence (Q16531 whole entry partner) above

| DC50 (ZBTB7A) [nM] | DC50 (WIZ) [nM] | SMILES | HBF AUC (HbF) |
| --- | --- | --- | --- |
| 10 | 11 | Cc1cc(-c2cc3c(cc2Nc2cccc4c2C(=O)N([C@H]2CCC(=O)NC2=O)C4=O)N(C)C(=O)O[C@@H]3C)c(F)cn1 [Compound 74, 2-((S)-2,6-dioxopiperidin-3-yl)-4-(((R)-6-(5-fluoro-2-methylpyridin-4-yl)-1,4-dimethyl-2-oxo-1,4-dihydro-2H-benzo[d][1,3]oxazin-7-yl)amino)isoindoline-1,3-dione] | ++ (++ = 100 ≤ AUC < 150) |
| 6 | 3 | CN1C(=O)COc2cc([C@H]3CC[C@H](C#N)CC3)c(Nc3cccc4c3C(=O)N([C@H]3CCC(=O)NC3=O)C4=O)cc21 [Compound 68, (1S,4r)-4-(6-((2-((S)-2,6-dioxopiperidin-3-yl)-1,3-dioxoisoindolin-4-yl)amino)-4-methyl-3-oxo-3,4-dihydro-2H-benzo[b][1,4]oxazin-7-yl)cyclohexane-1-carbonitrile] | +++ (+++ = AUC ≥ 150) |
| 15 | 11 | Cc1cc(-c2cc3c(cc2Nc2cccc4c2C(=O)N([C@H]2CCC(=O)NC2=O)C4=O)N(C)C(=O)[C@H](C)O3)cc(C)n1 [Compound 23, 4-(((S)-7-(2,6-dimethylpyridin-4-yl)-2,4-dimethyl-3-oxo-3,4-dihydro-2H-benzo[b][1,4]oxazin-6-yl)amino)-2-((S)-2,6-dioxopiperidin-3-yl)isoindoline-1,3-dione] | ++ (++ = 100 ≤ AUC < 150) |
| 18 | 9 | Cc1cncc(-c2cc3c(cc2Nc2cccc4c2C(=O)N([C@H]2CCC(=O)NC2=O)C4=O)N(C)C(=O)[C@@H](C)O3)c1 [Compound 42, 4-(((R)-2,4-dimethyl-7-(5-methylpyridin-3-yl)-3-oxo-3,4-dihydro-2H-benzo[b][1,4]oxazin-6-yl)amino)-2-((S)-2,6-dioxopiperidin-3-yl)isoindoline-1,3-dione] | + (+ = 15 ≤ AUC < 100) |
| 13 | 17 | Cc1cc(-c2cc3c(cc2Nc2cccc4c2C(=O)N([C@H]2CCC(=O)NC2=O)C4=O)N(C)C(=O)O[C@H]3C)ccn1 [Compound 22, 4-(((S)-1,4-dimethyl-6-(2-methylpyridin-4-yl)-2-oxo-1,4-dihydro-2H-benzo[d][1,3]oxazin-7-yl)amino)-2-((S)-2,6-dioxopiperidin-3-yl)isoindoline-1,3-dione] | +++ (+++ = AUC ≥ 150) |
| 16 | 13 | COc1ccc(-c2cc3c(cc2Nc2cccc4c2C(=O)N([C@H]2CCC(=O)NC2=O)C4=O)N(C)C(=O)[C@@H](C)O3)cn1 [Compound 39, 2-((S)-2,6-dioxopiperidin-3-yl)-4-(((R)-7-(6-methoxypyridin-3-yl)-2,4-dimethyl-3-oxo-3,4-dihydro-2H-benzo[b][1,4]oxazin-6-yl)amino)isoindoline-1,3-dione] | + (+ = 15 ≤ AUC < 100) |
| 10 | 6 | CCO[C@H]1CC[C@H](c2cc3c(cc2Nc2cccc4c2C(=O)N([C@H]2CCC(=O)NC2=O)C4=O)N(C)C(=O)[C@@H](C)O3)CC1 [Compound 45, 2-((S)-2,6-dioxopiperidin-3-yl)-4-(((R)-7-((1r,4R)-4-ethoxycyclohexyl)-2,4-dimethyl-3-oxo-3,4-dihydro-2H-benzo[b][1,4]oxazin-6-yl)amino)isoindoline-1,3-dione] | ++ (++ = 100 ≤ AUC < 150) |
| 21 | 28 | Cc1cc(-c2cc3c(cc2Nc2cccc4c2C(=O)N(C2CCC(=O)NC2=O)C4=O)N(C)C(=S)CC3)ccn1 (stereo not drawn) [Compound 19, 2-(2,6-dioxopiperidin-3-yl)-4-((1-methyl-6-(2-methylpyridin-4-yl)-2-thioxo-1,2,3,4-tetrahydroquinolin-7-yl)amino)isoindoline-1,3-dione] | ++ (++ = 100 ≤ AUC < 150) |
| 11 | 6 | Cc1cc(-c2cc3c(cc2Nc2cccc4c2C(=O)N(C2CCC(=O)NC2=O)C4=O)N(C)C(=O)CO3)ccn1 (stereo not drawn) [Compound 2, 2-(2,6-dioxopiperidin-3-yl)-4-((4-methyl-7-(2-methylpyridin-4-yl)-3-oxo-3,4-dihydro-2H-benzo[b][1,4]oxazin-6-yl)amino)isoindoline-1,3-dione] | +++ (+++ = AUC ≥ 150) |
| 10 | 8 | Cc1cc(-c2cc3c(cc2Nc2cccc4c2C(=O)N([C@@H]2CCC(=O)NC2=O)C4=O)N(C)C(=O)CO3)ccn1 [Compound 59, (R)-2-(2,6-dioxopiperidin-3-yl)-4-((4-methyl-7-(2-methylpyridin-4-yl)-3-oxo-3,4-dihydro-2H-benzo[b][1,4]oxazin-6-yl)amino)isoindoline-1,3-dione] | +++ (+++ = AUC ≥ 150) |
| 24 | 18 | CCN1C(=O)COc2cc(-c3ccnc(C)c3)c(Nc3cccc4c3C(=O)N([C@H]3CCC(=O)NC3=O)C4=O)cc21 [Compound 25, (S)-2-(2,6-dioxopiperidin-3-yl)-4-((4-ethyl-7-(2-methylpyridin-4-yl)-3-oxo-3,4-dihydro-2H-benzo[b][1,4]oxazin-6-yl)amino)isoindoline-1,3-dione] | + (+ = 15 ≤ AUC < 100) |
| 13 | 11 | COc1cc(-c2cc3c(cc2Nc2cccc4c2C(=O)N([C@H]2CCC(=O)NC2=O)C4=O)N(C)C(=O)CO3)c(F)cn1 [Compound 28, (S)-2-(2,6-dioxopiperidin-3-yl)-4-((7-(5-fluoro-2-methoxypyridin-4-yl)-4-methyl-3-oxo-3,4-dihydro-2H-benzo[b][1,4]oxazin-6-yl)amino)isoindoline-1,3-dione] | +++ (+++ = AUC ≥ 150) |
| 19 | 7 | CC(=O)N1CCC(c2cc3c(cc2Nc2cccc4c2C(=O)N(C2CCC(=O)NC2=O)C4=O)N(C)C(=O)CC3)CC1 (stereo not drawn) [Compound 84, 4-((6-(1-acetylpiperidin-4-yl)-1-methyl-2-oxo-1,2,3,4-tetrahydroquinolin-7-yl)amino)-2-(2,6-dioxopiperidin-3-yl)isoindoline-1,3-dione] | +++ (+++ = AUC ≥ 150) |
| 15 | 19 | Cc1cc(-c2cc3c(cc2Nc2cccc4c2C(=O)N([C@H]2CCC(=O)NC2=O)C4=O)N(C)C(=O)OC3C)ccn1 (stereo partly drawn) [Compound 70, 4-((1,4-dimethyl-6-(2-methylpyridin-4-yl)-2-oxo-1,4-dihydro-2H-benzo[d][1,3]oxazin-7-yl)amino)-2-((S)-2,6-dioxopiperidin-3-yl)isoindoline-1,3-dione] | ++ (++ = 100 ≤ AUC < 150) |
| 19 | 15 | COc1nccc(-c2cc3c(cc2Nc2cccc4c2C(=O)N([C@H]2CCC(=O)NC2=O)C4=O)N(C)C(=O)[C@@H](C)O3)c1F [Compound 36, 2-((S)-2,6-dioxopiperidin-3-yl)-4-(((R)-7-(3-fluoro-2-methoxypyridin-4-yl)-2,4-dimethyl-3-oxo-3,4-dihydro-2H-benzo[b][1,4]oxazin-6-yl)amino)isoindoline-1,3-dione] | + (+ = 15 ≤ AUC < 100) |
| 28 | 24 | Cc1cc(-c2c(Nc3cccc4c3C(=O)N(C3CCC(=O)NC3=O)C4=O)cc3c(c2F)OCC(=O)N3C)ccn1 (stereo not drawn) [Compound 81, 2-(2,6-dioxopiperidin-3-yl)-4-((8-fluoro-4-methyl-7-(2-methylpyridin-4-yl)-3-oxo-3,4-dihydro-2H-benzo[b][1,4]oxazin-6-yl)amino)isoindoline-1,3-dione] | ++ (++ = 100 ≤ AUC < 150) |
| 98 | 13 | Cc1cc(-c2cc3c(cc2Nc2cccc4c2C(=O)N([C@H]2CCC(=O)NC2=O)C4=O)N(C2CC2)C(=O)CO3)ccn1 [Compound 26, (S)-4-((4-cyclopropyl-7-(2-methylpyridin-4-yl)-3-oxo-3,4-dihydro-2H-benzo[b][1,4]oxazin-6-yl)amino)-2-(2,6-dioxopiperidin-3-yl)isoindoline-1,3-dione] | ++ (++ = 100 ≤ AUC < 150) |
| 13 | 14 | COc1ccc(-c2cc3c(cc2Nc2cccc4c2C(=O)N([C@H]2CCC(=O)NC2=O)C4=O)N(C)C(=O)CO3)cn1 [Compound 38, (S)-2-(2,6-dioxopiperidin-3-yl)-4-((7-(6-methoxypyridin-3-yl)-4-methyl-3-oxo-3,4-dihydro-2H-benzo[b][1,4]oxazin-6-yl)amino)isoindoline-1,3-dione] | ++ (++ = 100 ≤ AUC < 150) |
| 70 | 76 | Cc1cc(-c2c(Nc3cccc4c3C(=O)N(C3CCC(=O)NC3=O)C4=O)cc3c(c2F)OCC(=O)N3C)cc(C(F)F)n1 (stereo not drawn) [Compound 78, 4-((7-(2-(difluoromethyl)-6-methylpyridin-4-yl)-8-fluoro-4-methyl-3-oxo-3,4-dihydro-2H-benzo[b][1,4]oxazin-6-yl)amino)-2-(2,6-dioxopiperidin-3-yl)isoindoline-1,3-dione] | ++ (++ = 100 ≤ AUC < 150) |
